Experimental findings from ChEMBL document CHEMBL5143540, “Design, synthesis and biological evaluation of nitrofuran-1,3,4-oxadiazole hybrids as new antitubercular agents” (Bioorg Med Chem, 2022) are described below.

Data set [1] deals with Mycobacterium tuberculosis. Description: Antitubercular activity against Mycobacterium tuberculosis H37Ra ATCC 25177 assessed as reduction in bacterial growth incubated for 7 days by Alamar blue assay. The format is functional. As to conditions: H37Ra ATCC 25177, 168 h, time 7 day. A general note: The colour change of resazurin is a common sign of viable cells or microbes.

The nature of data set [2]: Cytotoxicity against african green monkey Vero cells assessed as reduction in cell viability after 72 hrs by MTT assay. Type of data set: toxicity, cell-based. As to conditions: chlorocebus sabaeus.
Data set [3] in a line: Half life in ICR mouse at 25 mg/kg, po measured upto 24 hrs by HPLC analysis. Type of data set: ADME, organism-based. As to conditions: in vivo.
Data set [4] in a line: Tmax in ICR mouse at 25 mg/kg, po measured upto 24 hrs by HPLC analysis. As to conditions: in vivo. Type of data set: ADME, organism-based.
A short description of data set [5]: Cmax in ICR mouse at 25 mg/kg, po measured upto 24 hrs by HPLC analysis. Also noted: dose 25 mg/kg, time < 24 hrs, route po. Type of data set: ADME, organism-based. As to conditions: in vivo.
The nature of data set [6]: AUC(0 to infinity) in ICR mouse at 25 mg/kg, po measured upto 24 hrs by HPLC analysis. Type of data set: ADME, organism-based. Also noted: dose 25 mg/kg, time < 24 hrs, route po. As to conditions: in vivo.
Data set [7] in a line: MRT in ICR mouse at 25 mg/kg, po measured upto 24 hrs by HPLC analysis. The format is ADME, organism-based. As to conditions: in vivo.
Data set [8] can be described thus: Volume of distribution in ICR mouse at 25 mg/kg, po measured upto 24 hrs by HPLC analysis. The format is ADME, organism-based. As to conditions: in vivo.
Data set [9] in a line: Clearance in ICR mouse at 25 mg/kg, po measured upto 24 hrs by HPLC analysis. As to conditions: in vivo. Type of data set: ADME, organism-based.
Data set [10] deals with hERG (KCNH2) (Homo sapiens, UniProt Q12809). Put plainly: Inhibition of human ERG expressed in HEK293 cells at 10 uM by whole cell electrophysiology assay relative to control. The format is toxicity, cell-based. As to conditions: HEK293 cells expressing hERG. In general terms: The hERG channel carries a current that helps repolarise heart muscle cells.
Data set [11] concerns the target Voltage-gated inwardly rectifying potassium channel KCNH2 (Homo sapiens, UniProt Q12809). Put plainly: Inhibition of human ERG expressed in HEK293 cells by whole cell electrophysiology assay. The format is toxicity, cell-based.

≈ marks a conversion by molar mass, not a printed value.

Chain of Voltage-gated inwardly rectifying potassium channel KCNH2 (Q12809 whole entry): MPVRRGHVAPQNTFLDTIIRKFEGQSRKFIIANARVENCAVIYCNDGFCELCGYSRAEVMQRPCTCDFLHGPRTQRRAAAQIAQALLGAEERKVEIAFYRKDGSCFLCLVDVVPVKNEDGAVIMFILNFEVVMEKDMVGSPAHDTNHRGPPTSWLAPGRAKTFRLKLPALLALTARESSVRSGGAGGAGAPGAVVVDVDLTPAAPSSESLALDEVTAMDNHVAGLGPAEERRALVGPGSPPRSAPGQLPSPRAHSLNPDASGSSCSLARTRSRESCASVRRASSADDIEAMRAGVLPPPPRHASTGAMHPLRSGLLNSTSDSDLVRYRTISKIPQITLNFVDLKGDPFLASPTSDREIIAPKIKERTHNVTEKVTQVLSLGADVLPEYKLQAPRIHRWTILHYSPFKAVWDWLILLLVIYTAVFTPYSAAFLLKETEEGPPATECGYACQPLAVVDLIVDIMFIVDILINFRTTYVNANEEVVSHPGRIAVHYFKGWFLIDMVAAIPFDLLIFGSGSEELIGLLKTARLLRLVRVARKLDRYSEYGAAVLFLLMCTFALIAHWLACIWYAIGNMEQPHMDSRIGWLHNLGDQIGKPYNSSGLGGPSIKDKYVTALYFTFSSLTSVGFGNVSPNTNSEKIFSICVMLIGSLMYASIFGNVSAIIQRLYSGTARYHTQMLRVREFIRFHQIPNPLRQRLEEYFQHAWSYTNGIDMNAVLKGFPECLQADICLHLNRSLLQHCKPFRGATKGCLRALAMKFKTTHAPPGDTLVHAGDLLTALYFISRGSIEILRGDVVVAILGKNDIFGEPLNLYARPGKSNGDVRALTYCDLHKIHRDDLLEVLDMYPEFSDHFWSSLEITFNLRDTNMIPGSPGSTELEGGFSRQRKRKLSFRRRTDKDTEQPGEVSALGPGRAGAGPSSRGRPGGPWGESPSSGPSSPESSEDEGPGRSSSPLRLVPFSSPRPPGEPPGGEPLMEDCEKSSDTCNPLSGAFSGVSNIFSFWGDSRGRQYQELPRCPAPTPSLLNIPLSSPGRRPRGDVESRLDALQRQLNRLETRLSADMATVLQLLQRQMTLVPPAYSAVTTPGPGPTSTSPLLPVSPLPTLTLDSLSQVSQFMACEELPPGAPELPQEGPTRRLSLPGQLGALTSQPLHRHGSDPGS
Chain of hERG (KCNH2) (Q12809 whole entry): as above

`O=C(Nc1nnc(-c2ccc(Cl)cc2)o1)c1ccc([N+](=O)[O-])o1`: the MIC in data set [1] is 0.937 µg/mL (≈ 2.8 µM).

`COc1ccc(-c2nnc(CNC(=O)c3ccc([N+](=O)[O-])o3)o2)cc1`: the MIC in [1] was 7.07 µg/mL (≈ 20.5 µM).

For the molecule `O=[N+]([O-])c1ccc(-c2nnc(-c3ccc(C(F)(F)F)cc3)o2)o1`, the MIC in data set [1] came out at 0.125 µg/mL (≈ 0.384 µM).

For `O=[N+]([O-])c1ccc(-c2nnc(C3CCCO3)o2)o1` (configuration not stated), the MIC in data set [1] is 2 µg/mL (≈ 7.96 µM).

As to `O=C(NCc1nnc(-c2ccccc2)o1)c1ccc([N+](=O)[O-])o1`, the MIC in [1] is 2.43 µg/mL (≈ 7.74 µM).

Take `CCC(CC)c1nnc(-c2ccc([N+](=O)[O-])o2)o1`: the MIC in data set [1] is 0.911 µg/mL (≈ 3.63 µM).

As for `O=C(Nc1nnc(C2CCCO2)o1)c1ccc([N+](=O)[O-])o1` (configuration not stated), the MIC in data set [1] came to 0.007 µg/mL (≈ 0.0238 µM).

Consider `O=[N+]([O-])c1ccc(-c2nnc(-c3ccccc3)o2)o1`, for which the MIC in data set [1] amounted to 1.59 µg/mL (≈ 6.17 µM).

`COc1ccc(-c2nnc(-c3ccc([N+](=O)[O-])o3)o2)cc1`: the MIC in [1] turned out to be 0.475 µg/mL (≈ 1.65 µM).

For the molecule `CC(C)(C)c1ccc(-c2nnc(CNC(=O)c3ccc([N+](=O)[O-])o3)o2)cc1`, in [1], the MIC worked out at 4.83 µg/mL (≈ 13 µM). In addition, the CC50 at 72 h in [2] was found to be 3.62 µg/mL (≈ 9.79 µM). In [3], the half-life is 40.2 min. For the same molecule, the Tmax in data set [4] was found to be 15 min. This molecule had a Cmax in [5] of 139 ng/mL. This molecule displayed an AUC(0-inf) in data set [6] of 99.3 ng·h/mL. In data set [7], this molecule came in with an MRT of 55.2 min. The molecule further registered a Vd in [8] of 227 L/kg. In data set [9], this molecule registered a CL/F of 4600 mL/min/kg.

Regarding `CC(C)(C)c1ccc(-c2nnc(NC(=O)c3ccc([N+](=O)[O-])o3)o2)cc1`, the MIC in [1] is more than 16 µg/mL.

As for `CC(C)(C)c1ccc(-c2nnc(-c3ccc([N+](=O)[O-])o3)o2)cc1`, in data set [1], the MIC stood at 0.06 µg/mL (≈ 0.192 µM).

Turning to `O=C(Nc1nnc(-c2ccccn2)o1)c1ccc([N+](=O)[O-])o1`, the MIC in data set [1] stood at 0.03 µg/mL (≈ 0.0996 µM).

With `O=C(NCc1nnc(-c2ccc(OC(F)(F)F)cc2)o1)c1ccc([N+](=O)[O-])o1`, in [1], the MIC turned out to be 9.86 µg/mL (≈ 24.8 µM). The half-maximal cytotoxic concentration (CC50) at 72 h in data set [2] was found to be 3.48 µg/mL (≈ 8.74 µM).

As for `O=[N+]([O-])c1ccc(-c2nnc(-c3ccc(OC(F)(F)F)cc3)o2)o1`, the MIC in data set [1] came to 0.178 µg/mL (≈ 0.522 µM).

Regarding `O=C(Nc1nnc(C2CCCCC2)o1)c1ccc([N+](=O)[O-])o1`, the minimal inhibitory concentration (MIC) in data set [1] turned out to be 0.025 µg/mL (≈ 0.0816 µM).

Take `O=C(Nc1nnc(-c2ccncc2)o1)c1ccc([N+](=O)[O-])o1`: in data set [1], the MIC came out at 0.038 µg/mL (≈ 0.126 µM).

In the case of `CC(C)c1nnc(-c2ccc([N+](=O)[O-])o2)o1`, the MIC in data set [1] amounted to 0.709 µg/mL (≈ 3.18 µM).

For `O=C(Nc1nnc(-c2ccc(Br)cc2)o1)c1ccc([N+](=O)[O-])o1`, in data set [1], the MIC came to 0.795 µg/mL (≈ 2.1 µM). Moreover, the CC50 at 72 h in data set [2] was 57.3 µg/mL (≈ 151 µM). In addition, the half-life in [3] is 270 min. Also, the Tmax in data set [4] is 15 min. Further, the highest level in data set [5] (Cmax) was 15800 ng/mL. The molecule further gave an AUC(0-inf) in [6] of 110000 ng·h/mL. In addition, the MRT in data set [7] is 382 min. The molecule also showed a Vd in data set [8] of 1.46 L/kg. This molecule also yielded a CL/F in [9] of 3.79 mL/min/kg. The same molecule gave an inhibition at 10 µM in data set [10] of 11.3%. Moreover, the IC50 in data set [11] is more than 10 µM.

With `O=[N+]([O-])c1ccc(-c2nnc(-c3ccc(Br)cc3)o2)o1`, the MIC in data set [1] amounted to 0.597 µg/mL (≈ 1.78 µM).

In the case of `O=[N+]([O-])c1ccc(-c2nnc(C3CCCCC3)o2)o1`, in data set [1], the MIC was determined as 1.97 µg/mL (≈ 7.47 µM).

Turning to `O=C(NCc1nnc(-c2ccc(C(F)(F)F)cc2)o1)c1ccc([N+](=O)[O-])o1`, the MIC in data set [1] was 3.73 µg/mL (≈ 9.75 µM). Moreover, in [2], the CC50 at 72 h was 3.56 µg/mL (≈ 9.32 µM).

Take `COc1ccc(Cc2nnc(NC(=O)c3ccc([N+](=O)[O-])o3)o2)cc1`: the MIC in data set [1] was determined as 0.02 µg/mL (≈ 0.0581 µM).

`COc1ccc(-c2nnc(NC(=O)c3ccc([N+](=O)[O-])o3)o2)cc1`: in data set [1], the MIC amounted to 0.191 µg/mL (≈ 0.578 µM).

As to `O=C(Nc1nnc(-c2cccnc2)o1)c1ccc([N+](=O)[O-])o1`, the MIC in data set [1] came out at 0.037 µg/mL (≈ 0.123 µM).

In the case of `O=C(Nc1nnc(-c2ccc(F)cc2)o1)c1ccc([N+](=O)[O-])o1`, in data set [1], the MIC turned out to be 2.47 µg/mL (≈ 7.77 µM).

For `O=C(Nc1nnc(-c2ccc(C(F)(F)F)cc2)o1)c1ccc([N+](=O)[O-])o1`, the MIC in data set [1] worked out at 0.999 µg/mL (≈ 2.71 µM).

Consider `O=C(Nc1nnc(-c2ccc(OC(F)(F)F)cc2)o1)c1ccc([N+](=O)[O-])o1`, for which, in [1], the MIC was 1.23 µg/mL (≈ 3.2 µM).

Take `NNC(=O)c1ccncc1` [ISONIAZID]: in data set [1], the MIC is more than 16 µg/mL.

`O=c1nc(N2CCN(CC3CCCCC3)CC2)sc2c([N+](=O)[O-])cc(C(F)(F)F)cc12` [MACOZINONE]: in data set [8], the Vd was determined as 56.8 L/kg. This molecule registered a CL/F in [9] of 279 mL/min/kg.

For `CO[C@H]1/C=C/O[C@@]2(C)Oc3c(C)c(O)c4c(O)c(c(/C=N/N5CCN(C)CC5)c(O)c4c3C2=O)NC(=O)/C(C)=C\C=C\[C@H](C)[C@H](O)[C@@H](C)[C@@H](O)[C@@H](C)[C@H](OC(C)=O)[C@@H]1C` [RIFAMPIN], in [1], the MIC is more than 16 µg/mL.

What is called MIC is the lowest concentration that inhibits growth of the organism. By CC50 is commonly meant the concentration giving 50% cytotoxicity. The half-life is the time in which the quantity being followed falls by half. The Tmax is the time from dosing to the highest level. As a reminder, the Cmax is the peak of the concentration-time curve. In general, AUC(0-inf) refers to the area under the concentration-time curve extrapolated to infinity. In general, MRT refers to a mean duration of stay, worked out from the concentration-time curve. For orientation: CL/F means clearance divided by bioavailability, as obtained after extravascular dosing. As a reminder, the inhibition is the drop in the measured response relative to a control, in per cent. A word on the IC50: it is the concentration that gives 50% inhibition.
